Experimental findings from patent US11673866B2, “Estrogen receptor beta ligands for the prevention and treatment of multiple sclerosis (MS) and other demyelinating, inflammatory and neurodegenerative diseases” (The Board of Trustees of the University of Illinois, priority 2018, dated 2023) are described below.

One assay has as its system CXCL1. Briefly: CXCL1 staining in thoracic ventral column white matter of EAE mice. The conditions noted are these: vs vehicle; for CXCL1 staining intensity, thoracic ventral column: therapeutic treatment (postEAE). Type of assay: in vivo, mouse. Also noted: key to CNS Chemokines: CXCL1: ‘+’ indicate marker was significantly (p ≤ 0.05) increased in treatment group relative to vehicle; ‘−’ indicates marker was significantly (p ≤ 0.05) decreased in treatment group relative to vehicle; ○: ‘o’ indicate marker did not change relative to vehicle. An excerpt:
Immunohistochemistry: Before histological staining, 40-μm free floating sections were thoroughly washed with PBS to remove residual sodium azide (Crawford et al., 2010). Sections were permeabilized with 0.3% Triton X-100 in ix PBS and 15% normal goat serum (NGS). Myelination, gliosis and immune markers were visualized by the following primary antibodies at a concentration of 1:500 unless otherwise noted: chicken anti-myelin basic protein (MBP; polyclonal, EMD Millipore, Darmstadt, Germany), chicken anti-glial fibrillary acidic protein (GFAP; EMD Millipore, Darmstadt), rat anti-cluster of differentiation 45 (CD45; clone 30-F11, BD Biosciences, San Diego, Calif.), mouse anti-ionized calcium-binding adapter molecule 1/allograft inflammatory factor-1 (Iba1/AIF1; clone 20A12.1, EMD Millipore, Darmstadt, Germany), goat anti-CXCL1 (R&D systems; Minneapolis, Minn.) at 1:250 and mouse anti-adenomatous polyposis coli (CC-1; clone CC-1, Genetex, Irvine, Calif.). Secondary staining was performed using polyclonal fluorophore-conjugated antibodies from ThermoFisher Scientific at a concentration of 1:500 unless otherwise specified: goat anti-chicken Alexa Fluor® 555 (AF555), goat anti-rabbit Alexa Fluor® 647 (AF647), donkey anti-chicken IgY Cy3 (EMD Millipore), goat anti-rat IgG AF647, goat anti-rabbit IgG Cy3 (EMD Millipore), goat anti-mouse IgG2b AF647 and rabbit anti-goat AF647. Nuclei were counter stained with 4′,6-Diamidino-2-phenylindole (DAPI, 2 ng/ml; Molecular Probes) for 10 minutes after incubation with secondary antibodies, and sections were mounted on glass slides, allowed to dry, and coverslipped with Fluoromount G mounting medium (Thermo Fisher Scientific) for imaging.
Confocal Microscopy: Thoracic spinal cord dorsal and ventral column sections, as well as CC were imaged using an Olympus BX61 confocal microscope (Olympus America Inc., Center Valley, Pa.) using a 10× and 40× objective. Z-stack projections were compiled using SlideBook 6 software (Intelligent Imaging Innovations, Inc., Denver, Colo.). Immunostaining was quantified using unbiased stereology (Crawford et al., 2010). All images (RGB) were Confocal converted to grayscale, split, and separated by color channel using imageJ version 2.2.0-rc-46/1.50 g (NIH). To avoid experimenter bias, auto-adjustment of brightness and contrast, as well as threshold of staining signal, was carried out by ImageJ. MBP^+, GFAP^+, CD45^+, Iba1^+, CC1^+, and CXCL1^+, staining intensity was measured as percent area of positive immunoreactivity within the region of interest and intensity of signal determined by ImageJ.
Under inflammatory conditions, such as those generated by MS, astrocytes undergo NF-κB-dependent upregulation of CXCL1, which is thought to recruit OPCs to the site of demyelinating injury (Omari et al., 2006; Xue et al., 2014). Thus, having observed that IndCl raised its production by peripheral leukocytes, CXCL1 expression in thoracic ventral column white matter was next evaluated.

In the next assay the test system is corpus callosum axons. The assay can be described thus: Electron microscopy g-ratio of corpus callosum axons of EAE mice. It counts as in vivo, mouse. Set-up: key to Myelination: g-ratio: ‘+’ indicate marker was significantly (p ≤ 0.05) increased in treatment group relative to vehicle; ‘−’ indicates marker was significantly (p ≤ 0.05) decreased in treatment group relative to vehicle; ○: ‘o’ indicate marker did not change relative to vehicle. To be noted: vs vehicle; for Myelination: g-ratio: Post (therapeutic, postEAE) treatment of EAE mice. The procedure: Transmission Electron Microscopy: Mice were perfused with PBS as above followed by paraformaldehyde/glutaraldehyde to preserve ultrastructure and Epon embedded as previously described (Crawford et al., 2010). Serial ultrathin sections of Epon-embedded CC were stained with uranyl acetate-lead citrate were used for electron microscopy analysis (19). G-ratio was measured using Fiji v1.0 Software (NIH).
EM analysis (FIGS. 8A and 8B): Within a given field imaged, g-ratios were calculated by comparing mean ratio of inner axonal diameter to total outer diameter for all myelinated and non-myelinated fibers. […] Treatment with IndCl or either analogue decreased both non-myelinated axons numbers and g-ratio relative to vehicle.

The target in another assay is ERβ (Homo sapiens, UniProt Q92731). The assay can be described thus: Relative binding affinity (RBA) to estrogen receptor beta, radiometric measurement. To be noted: for β/α Ratio: ratio of RBA ERβ to RBA ERα; for RBA ERβ: relative value to 100% for E2 by radiometric measurement.
Setting [1] is: Post (therapeutic, postEAE) treatment of EAE mice.

SMILES strings stand for the structures. “Also recorded” adds a separate entry of the source.

ERβ, sequence (Q92731 whole entry, species assumed): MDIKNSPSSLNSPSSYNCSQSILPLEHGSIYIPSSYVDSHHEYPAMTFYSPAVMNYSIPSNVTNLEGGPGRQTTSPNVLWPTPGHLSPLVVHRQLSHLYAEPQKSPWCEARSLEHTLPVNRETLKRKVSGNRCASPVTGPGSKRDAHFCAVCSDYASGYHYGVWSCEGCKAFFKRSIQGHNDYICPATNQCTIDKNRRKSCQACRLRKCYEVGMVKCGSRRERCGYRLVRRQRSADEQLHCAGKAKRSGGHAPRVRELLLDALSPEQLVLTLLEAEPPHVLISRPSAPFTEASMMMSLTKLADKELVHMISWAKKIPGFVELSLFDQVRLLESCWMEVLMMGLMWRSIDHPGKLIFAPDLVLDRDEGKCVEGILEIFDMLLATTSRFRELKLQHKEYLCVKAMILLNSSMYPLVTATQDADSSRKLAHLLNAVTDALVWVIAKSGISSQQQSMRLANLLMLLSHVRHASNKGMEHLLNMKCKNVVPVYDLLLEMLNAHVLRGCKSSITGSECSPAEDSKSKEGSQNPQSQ

Turning to `C[C@]12CC[C@@H]3c4ccc(O)cc4CC[C@H]3[C@@H]1CC[C@@H]2O` [E2, 170 estradiol], the “CNS Chemokines: CXCL1” value in the assay with CXCL1 (setting [1]) is “+”; with CXCL1 (Pre (prophylactic, preEAE) E2 treatment of EAE mice), “○”.

For the compound `Oc1ccc(-n2nc3ccc(O)cc3c2Cl)cc1` [IndCl, chloroindazole], the “CNS Chemokines: CXCL1” value in the assay on CXCL1 (setting [1]) was “+”. The “CXCL1 staining intensity, thoracic ventral column” value (from here on “CXCL1 staining intensity”) in the assay with CXCL1 is “significant increase; also recorded: significantly increased”. The “Myelination: g-ratio” value with corpus callosum axons is “−”. For the same compound, the “g-ratio of callosal axons” value in the assay with corpus callosum axons (therapeutic treatment (postEAE)) is “decreased”. For the same compound, at ERβ, the “β/α Ratio” value worked out at 107 and the “RBA ERβ” value was 32.1%.

For the compound `Oc1ccc(-n2nc3ccc(O)cc3c2Cl)c(Cl)c1` [IndCl-o-Cl, 3-chloro-2-(2-chloro-4-hydroxyphenyl)-2H-indazol-5-ol], the “CNS Chemokines: CXCL1” value in the assay with CXCL1 (setting [1]) is recorded as “+”. Also, the “CXCL1 staining intensity” value with CXCL1 is on record as “significant increase; also recorded: significantly increased”. Further, the “Myelination: g-ratio” value with corpus callosum axons is recorded as “−”. In addition, on ERβ, the “β/α Ratio” value was determined as 27.1 and the “RBA ERβ” value turned out to be 10.9%.

For the compound `Cc1cc(O)ccc1-n1nc2ccc(O)cc2c1Cl` [IndCl-o-Me, 3-chloro-2-(4-hydroxy-2-methylphenyl)-2H-indazol-5-ol], in the assay on CXCL1 (setting [1]), the “CNS Chemokines: CXCL1” value is recorded as “+”. Further, in the assay on CXCL1, the “CXCL1 staining intensity” value was “significant increase; also recorded: significantly increased”. In addition, in the assay with corpus callosum axons, the “Myelination: g-ratio” value is given as “−”. Further, at ERβ, the “β/α Ratio” value stood at 48.9 and the “RBA ERβ” value is on record as 21.1%.
